US8080555B2, “Purine derivatives and their use for treatment of autoimmune diseases” (Prometic Biosciences Inc., priority 2005, dated 2011)
Structures can show the parent of a compound that is named as a salt.

Key:
[1] = molecular target: T1, Fc portion of human IgG; assay: Competitive protein A binding ELISA (inhibition of binding of protein A to human IgG); settings: HRP-human IgG, assay in PBS, read-out: IC50 (μM) Assay in PBS, concentration which inhibits 50% binding of protein A
T1 construct: fused on or other part: Horseradish peroxidase chemically conjugated to the IgG (detection label)
Protocol: As described above, this assay evaluates the ability of the exemplified compounds to mimic protein A. Such compounds can bind to the Fc portion of human IgG as ascertained by the inhibition of binding of protein A to human IgG. The competitive protein A binding ELISA assay was performed on a 96-well plate MAXISORP® surface to enhance the binding of protein A to the bottom of the plate. The wells were coated with 100 μL of protein A (0.8 μg) and incubated overnight at 4° C. After incubation, unbound protein A was removed by three washes with phosphate buffer saline (PBS). The plate was then incubated with 100 μL/well of a 2% solution of bovine serum albumin (BSA) for 1 h at 37° C. to block nonspecific protein binding. After incubation, the plate was washed three times with PBS. 50 μL of compound or protein A, diluted in PBS or PBS-20% DMSO at appropriate concentration, were added to the wells followed by addition of 50 μL of peroxidase-conjugated human IgG (HRP-IgG). After 1 h incubation at 37° C., the plate was washed three times with PBS to remove unbound HRP-IgG. Bound HRP-IgG was detected by incubation with 100 μL of 2,2′-azino-di[3-ethylbenzthiazoline sulfonate] diammonium salt crystals (ABTS) solution for 20 min in the dark at room temperature. The plate was then read at 405 nm on a BIO-TEK® EL 800 Universal Microplate Reader. Data was analyzed in a MICROSOFT® EXCEL® spreadsheet and the concentration of compound which inhibits 50% binding of protein A (IC50) was calculated using PRISM® software, as shown in Table 1.

[2] = test system: LPS-induced TNFα production in J774A-1 cells; assay: LPS-induced TNFα production in J774A-1 cells, TNFα by ELISA; assay type: cell-based; settings: Mus musculus, J774.A1, 24 h, read-out: IC50 (μM), concentration which inhibits 50% of TNFα production
Protocol: The effect of compounds on TNFα production was measured by ELISA using J774-1 cells stimulated by lipopolysaccharide (LPS). J774-1 cells were cultured in the presence or absence of LPS and compound. Cells were cultured at 37° C. for 24 h and thereafter the supernatants were collected for the determination of the concentration of TNFα by ELISA as recommended by the manufacturer (BD Biosciences). Data was analyzed in a MICROSOFT® EXCEL® spreadsheet and the concentration of compound which inhibits 50% of TNFα production (IC50) was calculated using PRISM® software, as shown in Table 2.

[3] = test system: oxazolone-induced delayed-type hypersensitivity (DTH); assay: Oxazolone-induced delayed-type hypersensitivity (DTH) in mice; assay type: in vivo; settings: for Inflammation/Ear thickness (mm), Challenge 1 / Inflammation/Ear thickness (mm), Challenge 2: intravenous, 50 mg/kg day 0, 1 and 2; for Inflammation/Ear thickness (mm), Challenge 1: first challenge day 3; for Inflammation/Ear thickness (mm), Challenge 2: second challenge day 10
Protocol: Compounds were tested for their ability to treat oxazolone-induced delayed-type hypersensitivity (DTH) in mice. On day 0, mice were sensitized with 100 μL of oxazolone in 5% acetone. On day 0, 1 and 2, mice were treated by intravenous administration of the vehicle (control) or methotrexate (MTX; positive control) or the compound at 50 mg/kg. Mice were challenged with an application of 50 μL of oxazolone on the surface of the right ear (first challenge, day 3; second challenge, day 10). Ear thickness was measured on day 4 to day 7, and on day 11 to 14. Redness and crust formation was also observed. Mice were sacrificed on day 14. TDTH (CD4) cells play an important role in regulating the intensity of the DTH response.
The effect of oral administration of compound 1 was determined following the protocol described above with the exception that compound 1 was orally administered at 50 or 150 mg/kg from day 0 to day 13. The positive control was hydrocortisone.

[4] = test system: Freund's adjuvant-induced arthritis (AIA); assay: Freund's adjuvant-induced arthritis (AIA) in female Lewis rats; assay type: in vivo
Protocol: AIA was induced in female Lewis rats by the injection of lyophilized Mycobacterium butyricum suspended in mineral oil into the footpad. The development of arthritis was monitored over a 3 week period post-adjuvant injection. Inflammation peaks at day 3 following the adjuvant administration. Immune activation appears around day 14. Compounds were injected i.v. day-3, -2 and -1 pre-adjuvant injection and at day 10, 11 and 12 post-adjuvant injection. Body weight was recorded. The arthritis index, which is a measure of inflammation (edema), redness, and stiffness of the articulations, was used to monitor the development of the disease. The degree of arthritis was determined by measuring two perpendicular diameters of the ankles in the mediolateral and dorsoventral planes using a caliper. Joint circumference in millimeters is then calculated using a geometric formula. Both the incidence and severity of the arthritis was evaluated. Incidence is defined as the number of rats with clinical evidence of joint inflammation during the study period.
The effect of oral administration of compound 1 was determined following the protocol described above with the exception that compound 1 was orally administered at 50 mg/kg from day-3 to day 19. The positive control was indomethacin.

SMILES | IC50 [1] [µM] | IC50 [2] [µM] | other results
Nc1ccc(CCn2cnc3c(Nc4cccc(N)c4)ncnc32)cc1 [Compound 1, N-{9-[2-(4-aminophenyl)ethyl]-9H-purin-6-yl}benzene-1,3-diamine dihydrochloride] | 1 | > 100 | potency compared to methotrexate in DTH ([3]; intravenous administration): equipotent to methotrexate; redness, crust formation, and ear swelling ([3]; intravenous administration): reduces; reduction of the inflammation as seen by lower ear thickness ([3]; intravenous administration): significant reduction; Inflammation/Ear thickness (mm), Challenge 1 [3]: 0.19 ± 0.06 mm; Inflammation/Ear thickness (mm), Challenge 2 [3]: 0.56 ± 0.12 mm; reduction of the inflammation as seen by lower ear thickness ([3]; oral, 50 or 150 mg/kg day 0 to day 13, challenges 1 and 2, FIG. 1): significant reduction; reduction in the severity of arthritis (inflammatory index) ([4]; intravenous injection, FIG. 2): up to 25%; reduction in the severity of arthritis (inflammatory index) ([4]; oral administration, FIG. 3): 10-30%
Nc1ccc(CCn2cnc3c(Nc4cccc(N)c4)nc(NCCO)nc32)cc1 [Compound 8, 2-{6-(3-Amino-phenylamino)-9-[2-(4-amino-phenyl)-ethyl]-9H-purin-2-ylamino}-ethanol] | 64 | 11 | 
CC(C)CNc1nc(Nc2cccc(N)c2)c2ncn(CCc3ccc(N)cc3)c2n1 [Compound 11, N6-(3-Amino-phenyl)-9-[2-(4-amino-phenyl)-ethyl]-N2-isobutyl-9H-purine-2,6-diamine] | 22 | 11 | 
Nc1cccc(CCn2cnc3c(Nc4cccc(N)c4)ncnc32)c1 [Compound 12, N-{9-[2-(3-Amino-phenyl)-ethyl]-9H-purin-6-yl}-benzene-1,3-diamine] | 52 | > 50 | 
CN(Cc1cnc2nc(N)nc(N)c2n1)c1ccc(C(=O)N[C@@H](CCC(=O)O)C(=O)O)cc1 [Methotrexate, methotrexate, reference compound] |  |  | Inflammation/Ear thickness (mm), Challenge 1 [3]: 0.17 ± 0.04 mm; Inflammation/Ear thickness (mm), Challenge 2 [3]: 0.46 ± 0.17 mm; reduction in the severity of arthritis (inflammatory index) ([4]; intravenous injection, FIG. 2): 20%
COc1ccc2c(c1)c(CC(=O)O)c(C)n2C(=O)c1ccc(Cl)cc1 [indomethacin, reference compound] |  |  | reduction in the severity of arthritis (inflammatory index) ([4]; oral administration, FIG. 3): 10-40%

More lines, in order of falling IC50 [1], values ahead:

IC50 [1] [µM] | IC50 [2] [µM] | SMILES | other results
13 | 76 | Nc1ccc(CCn2cnc3c(Nc4cccc(N)c4)nc(N)nc32)cc1 [Compound 2, N6-(3-Amino-phenyl)-9-[2-(4-amino-phenyl)-ethyl]-9H-purine-2,6-diamine] | 
13 | 9.2 | Nc1ccc(CCn2cnc3c(Nc4cccc(N)c4)nc(NC4CC4)nc32)cc1 [Compound 5, N6-(3-Amino-phenyl)-9-[2-(4-amino-phenyl)-ethyl]-N2-cyclopropyl-9H-purine-2,6-diamine] | 
7.1 | > 50 | Nc1cccc(Nc2nc(F)nc3c2ncn3CCc2ccc(OCc3ccccc3)cc2)c1 [Compound 9, N-{9-[2-(4-Benzyloxy-phenyl)-ethyl]-2-fluoro-9H-purin-6-yl}-benzene-1,3-diamine] | 
6 | 5.3 | CC(C)(C)CNc1nc(Nc2cccc(N)c2)c2ncn(CCc3ccc(N)cc3)c2n1 [Compound 10, N6-(3-Amino-phenyl)-9-[2-(4-amino-phenyl)-ethyl]-N2-(2,2-dimethyl-propyl)-9H-purine-2,6-diamine] | 
4.8 | > 50 | Nc1ccc(CCn2cnc3c(Nc4cccc(N)c4)nc(NCCCCCCO)nc32)cc1 [Compound 4, 6-{6-(3-Amino-phenylamino)-9-[2-(4-amino-phenyl)-ethyl]-9H-purin-2-ylamino}-hexan-1-ol] | 
1.8 | 2.3 | CC(C)(C)Nc1nc(Nc2cccc(N)c2)c2ncn(CCc3ccc(N)cc3)c2n1 [Compound 6, N6-(3-Amino-phenyl)-9-[2-(4-amino-phenyl)-ethyl]-N2-tert-butyl-9H-purine-2,6-diamine] | 
0.7 | > 50 | Nc1ccc(CCn2cnc3c(Nc4cccc(N)c4)nc(NCC4CC4)nc32)cc1 [Compound 3, N6-(3-Amino-phenyl)-9-[2-(4-amino-phenyl)-ethyl]-N2-cyclopropylmethyl-9H-purine-2,6-diamine] | 
0.6 | > 50 | Nc1cccc(Nc2ncnc3c2ncn3CCc2ccc(F)cc2)c1 [Compound 14, N-{9-[2-(4-Fluoro-phenyl)-ethyl]-9H-purin-6-yl}-benzene-1,3-diamine] | 
0.2 | > 100 | Nc1ccc(Cn2cnc3c(Nc4cccc(N)c4)ncnc32)cc1 [Compound 7, N-[9-(4-Amino-benzyl)-9H-purin-6-yl]-benzene-1,3-diamine] | 
0.2 | 6.2 | Nc1ccc(CCn2cnc3c(Nc4cccc(N)c4)nc(NC4CCCC4)nc32)cc1 [Compound 13, N6-(3-Amino-phenyl)-9-[2-(4-amino-phenyl)-ethyl]-N2-cyclopentyl-9H-purine-2,6-diamine] | 
